Laboratory results taken from paper PMC8000448, “Inhibitory Effects of Schisandra Lignans on Cytochrome P450s and Uridine 5′-Diphospho-Glucuronosyl Transferases in Human Liver Microsomes” (Pharmaceutics, 2021).
Read-outs that look alike come from different tables or passages of the source.

What was measured:
CYP2A6 = target: T1, CYP2A6 (Homo sapiens, UniProt P11509); experiment: CYP2A6 inhibition in HLMs (coumarin); assay type: in vitro ADME
T1 construct: pooled HLMs (0.25 mg/mL); tissue XenoTech H2630; host or cells: pooled human liver microsomes, mixed gender
T1 sequence (P11509 1-494): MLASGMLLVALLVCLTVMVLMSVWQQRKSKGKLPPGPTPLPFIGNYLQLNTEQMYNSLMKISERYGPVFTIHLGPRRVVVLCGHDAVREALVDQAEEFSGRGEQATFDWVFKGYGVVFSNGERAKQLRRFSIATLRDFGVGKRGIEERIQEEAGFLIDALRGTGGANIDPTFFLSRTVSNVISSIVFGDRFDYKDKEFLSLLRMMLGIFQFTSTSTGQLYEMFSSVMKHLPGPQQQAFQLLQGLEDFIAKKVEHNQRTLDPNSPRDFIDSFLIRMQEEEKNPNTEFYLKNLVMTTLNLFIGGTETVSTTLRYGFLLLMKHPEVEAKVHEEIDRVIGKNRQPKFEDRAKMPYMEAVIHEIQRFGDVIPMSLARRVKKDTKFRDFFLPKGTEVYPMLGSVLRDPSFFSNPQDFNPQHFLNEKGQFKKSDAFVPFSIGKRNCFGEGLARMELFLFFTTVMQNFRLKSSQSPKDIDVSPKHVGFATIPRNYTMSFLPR
Description: (§1) Lignans were first dissolved in methanol. […] All microsomal incubations were performed in triplicate.

CYP2B6 = target: T2, CYP2B6 (Homo sapiens, UniProt P20813); experiment: CYP2B6 inhibition in HLMs (bupropion); assay type: in vitro ADME
T2 construct: pooled HLMs (0.25 mg/mL); tissue XenoTech H2630; host or cells: pooled human liver microsomes, mixed gender
T2 sequence (P20813 1-491): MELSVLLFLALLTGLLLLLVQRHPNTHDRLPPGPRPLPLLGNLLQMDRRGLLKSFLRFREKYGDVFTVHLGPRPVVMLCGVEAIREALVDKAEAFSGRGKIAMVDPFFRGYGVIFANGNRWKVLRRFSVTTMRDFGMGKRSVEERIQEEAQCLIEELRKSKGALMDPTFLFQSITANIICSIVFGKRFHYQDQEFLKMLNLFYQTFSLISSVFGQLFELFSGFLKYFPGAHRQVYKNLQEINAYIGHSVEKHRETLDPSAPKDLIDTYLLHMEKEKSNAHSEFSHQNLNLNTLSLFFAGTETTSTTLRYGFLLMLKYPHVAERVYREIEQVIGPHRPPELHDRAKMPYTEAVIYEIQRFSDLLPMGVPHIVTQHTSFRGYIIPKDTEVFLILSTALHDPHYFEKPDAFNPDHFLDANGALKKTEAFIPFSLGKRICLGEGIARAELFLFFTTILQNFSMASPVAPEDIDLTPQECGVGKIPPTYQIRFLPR
Description: as §1

CYP2C8 = target: T3, CYP2C8 (Homo sapiens, UniProt P10632); experiment: CYP2C8 inhibition in HLMs (amodiaquine); assay type: in vitro ADME
T3 construct: pooled HLMs (0.25 mg/mL); tissue XenoTech H2630; host or cells: pooled human liver microsomes, mixed gender
T3 sequence (P10632 1-490): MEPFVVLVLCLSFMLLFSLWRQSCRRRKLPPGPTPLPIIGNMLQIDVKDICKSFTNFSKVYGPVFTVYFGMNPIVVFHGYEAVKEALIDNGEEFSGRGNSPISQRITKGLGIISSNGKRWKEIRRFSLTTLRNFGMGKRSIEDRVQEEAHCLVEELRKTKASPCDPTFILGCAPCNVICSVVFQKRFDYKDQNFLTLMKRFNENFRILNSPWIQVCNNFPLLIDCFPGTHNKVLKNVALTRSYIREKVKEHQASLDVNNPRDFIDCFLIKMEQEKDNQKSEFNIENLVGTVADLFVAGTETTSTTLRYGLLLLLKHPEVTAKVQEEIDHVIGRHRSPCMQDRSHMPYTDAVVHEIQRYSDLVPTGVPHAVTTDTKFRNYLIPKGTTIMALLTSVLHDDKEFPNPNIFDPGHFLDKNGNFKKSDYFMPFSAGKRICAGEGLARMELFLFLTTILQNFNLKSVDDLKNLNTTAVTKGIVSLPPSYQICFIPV
Description: as §1

CYP2E1 = target: T4, CYP2E1 (Homo sapiens, UniProt P05181); experiment: CYP2E1 inhibition in HLMs (chlorzoxazone); assay type: in vitro ADME
T4 construct: pooled HLMs (0.25 mg/mL); tissue XenoTech H2630; host or cells: pooled human liver microsomes, mixed gender
Description: as §1

UGT1A4 = target: T5, UGT1A4 (Homo sapiens, UniProt P22310); experiment: UGT1A4 inhibition in HLMs (trifluoperazine); assay type: in vitro ADME; conditions: average in triplicate, read-out: IC50, UGT 1A4
T5 construct: pooled HLMs (0.25 mg/mL); tissue XenoTech H2630; host or cells: pooled human liver microsomes, mixed gender
T5 sequence (P22310 29-534): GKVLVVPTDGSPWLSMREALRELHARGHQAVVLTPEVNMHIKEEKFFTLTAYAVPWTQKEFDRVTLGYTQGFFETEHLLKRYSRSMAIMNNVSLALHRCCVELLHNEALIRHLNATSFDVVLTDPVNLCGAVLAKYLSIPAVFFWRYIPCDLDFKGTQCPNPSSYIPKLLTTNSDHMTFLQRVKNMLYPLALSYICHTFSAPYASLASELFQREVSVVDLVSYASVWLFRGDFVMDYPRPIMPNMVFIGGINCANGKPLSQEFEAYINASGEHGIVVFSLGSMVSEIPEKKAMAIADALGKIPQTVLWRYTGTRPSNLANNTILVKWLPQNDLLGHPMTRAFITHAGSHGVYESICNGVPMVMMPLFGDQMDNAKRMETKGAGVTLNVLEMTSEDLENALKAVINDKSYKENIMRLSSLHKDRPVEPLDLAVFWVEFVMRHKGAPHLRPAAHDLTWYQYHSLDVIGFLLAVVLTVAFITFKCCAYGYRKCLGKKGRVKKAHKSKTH
Description: The inhibitory potential of six lignans on six UGT activities was evaluated using the previously developed cocktail method with slight modifications. […] These substrates are known to be selective for each UGT isoforms.

CYP2C19 = CYP2C19 (Homo sapiens, UniProt P33261); experiment: CYP2C19 inhibition in HLMs (S-mephenytoin)
Description: (§2) Lignans were first dissolved in methanol. The final organic solvent concentration in the incubation media was ≤1.0% (v/v). The microsomal incubation was conducted using two cocktail sets containing non-interactive substrates: set A containing phenacetin, bupropion, amodiaquine, diclofenac, S-mephenytoin, and dextromethorphan as substrates for CYP1A2, CYP2B6, CYP2C8, CYP2C9, CYP2C19, and CYP2D6, respectively; and set B containing coumarin and chlorzoxazone as substrates for CYP2A6 and CYP2E1, and midazolam, nifedipine, and testosterone as substrates for CYP3A4 (Table 1). These substrates are known to be selective for each P450 isoforms. Incubation mixtures containing potassium phosphate buffer (0.1 M, pH 7.4), pooled HLMs (0.25 mg/mL), P450 probe substrate cocktails, and lignan (0~50 μM) were pre-incubated at 37 °C (5 min). Following pre-incubation, an NADPH generating system (1.3 mM NADP^+, 3.3 mM G6P, 1 unit/mL G6PDH, and 3.3 mM MgCl2) was added to initiate the reaction, and further incubated for 10 min. The reaction was quenched with 50 μL of cold acetonitrile containing internal standard (IS; 7 nM trimipramine). After centrifugation at 14,000 rpm (5 min at 4 °C), aliquots of supernatants were filtered through a 0.2 μm membrane filter and were measured by liquid chromatography-tandem mass spectrometry (LC-MS/MS). All microsomal incubations were performed in triplicate.

CYP3A = CYP3A (Homo sapiens, UniProt P08684); experiment: CYP3A inhibition in HLMs (midazolam, nifedipine, testosterone); conditions: pooled human liver microsomes; for IC50 at 10 min: HLMs;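 on all read-outs here: pooled HLMs at 0.25 mg/mL in phosphate buffer, inhibitor across 0–50 µM, 10 min reaction at 37 °C after preincubation, probe metabolite quantified by LC-MS/MS, triplicate incubations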
Description: as §2

[1] = 30 min pre-incubation with NADPH generating system, read-out: IC50 TDI, CYP2A6
[2] = reversible inhibition, read-out: IC50 RI, CYP2A6
[3] = 30 min pre-incubation with NADPH generating system, read-out: IC50 TDI, CYP2B6
[4] = reversible inhibition, read-out: IC50 RI, CYP2B6
[5] = 30 min pre-incubation with NADPH generating system, read-out: IC50 TDI, CYP2C8
[6] = reversible inhibition, read-out: IC50 RI, CYP2C8
[7] = 30 min pre-incubation with NADPH generating system, read-out: IC50 TDI, CYP2E1
[8] = reversible inhibition, read-out: IC50 RI, CYP2E1
[9] = IC50 TDI, 30 min pre-incubation with NADPH generating system
[10] = pH 7.4, IC50, CYP3A activity (across probe substrates), reversible inhibition, probe substrate not singled out
[11] = pH 7.4, probe midazolam (cocktail set B), IC50 RI, CYP3A (midazolam), midazolam, reversible inhibition
[12] = pH 7.4, probe midazolam (cocktail set B), IC50 TDI, CYP3A (midazolam), midazolam, 30 min pre-incubation with NADPH generating system
[13] = pH 7.4, probe nifedipine (cocktail set B), IC50 RI, CYP3A (nifedipine), nifedipine, reversible inhibition
[14] = pH 7.4, probe nifedipine (cocktail set B), IC50 TDI, CYP3A (nifedipine), nifedipine, 30 min pre-incubation with NADPH generating system
[15] = pH 7.4, probe testosterone (cocktail set B), IC50 RI, CYP3A (testosterone), testosterone, reversible inhibition
[16] = pH 7.4, probe testosterone (cocktail set B), IC50 TDI, CYP3A (testosterone), testosterone, 30 min pre-incubation with NADPH generating system

Chain of CYP3A (P08684 2-503): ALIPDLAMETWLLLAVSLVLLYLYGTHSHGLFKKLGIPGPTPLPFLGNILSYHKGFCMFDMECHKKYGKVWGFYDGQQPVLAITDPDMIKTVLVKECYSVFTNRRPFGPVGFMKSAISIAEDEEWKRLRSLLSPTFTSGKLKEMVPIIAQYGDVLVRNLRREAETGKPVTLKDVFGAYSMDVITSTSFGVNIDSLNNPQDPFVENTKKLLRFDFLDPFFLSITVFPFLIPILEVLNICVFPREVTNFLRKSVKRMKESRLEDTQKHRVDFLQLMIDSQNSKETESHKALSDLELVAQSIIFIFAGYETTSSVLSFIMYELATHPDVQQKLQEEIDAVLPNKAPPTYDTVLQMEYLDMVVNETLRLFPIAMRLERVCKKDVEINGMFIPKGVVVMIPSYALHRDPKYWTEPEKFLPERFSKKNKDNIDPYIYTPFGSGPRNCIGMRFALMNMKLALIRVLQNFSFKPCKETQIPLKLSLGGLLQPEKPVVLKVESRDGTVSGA
T4 sequence (P05181 whole entry): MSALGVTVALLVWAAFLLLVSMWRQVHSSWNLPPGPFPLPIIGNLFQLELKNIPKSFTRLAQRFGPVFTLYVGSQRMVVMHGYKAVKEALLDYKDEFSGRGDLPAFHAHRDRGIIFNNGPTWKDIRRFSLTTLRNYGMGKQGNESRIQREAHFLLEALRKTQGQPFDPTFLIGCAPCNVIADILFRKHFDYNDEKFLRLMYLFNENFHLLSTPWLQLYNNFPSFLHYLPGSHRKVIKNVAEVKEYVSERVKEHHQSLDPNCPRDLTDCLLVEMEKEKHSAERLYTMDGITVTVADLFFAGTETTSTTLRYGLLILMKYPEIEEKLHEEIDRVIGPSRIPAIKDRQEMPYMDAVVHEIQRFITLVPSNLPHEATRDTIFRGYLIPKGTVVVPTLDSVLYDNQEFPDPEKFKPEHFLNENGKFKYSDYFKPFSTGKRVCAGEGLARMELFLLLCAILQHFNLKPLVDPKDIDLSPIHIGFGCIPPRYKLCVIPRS
Chain of CYP2C19 (P33261 whole entry): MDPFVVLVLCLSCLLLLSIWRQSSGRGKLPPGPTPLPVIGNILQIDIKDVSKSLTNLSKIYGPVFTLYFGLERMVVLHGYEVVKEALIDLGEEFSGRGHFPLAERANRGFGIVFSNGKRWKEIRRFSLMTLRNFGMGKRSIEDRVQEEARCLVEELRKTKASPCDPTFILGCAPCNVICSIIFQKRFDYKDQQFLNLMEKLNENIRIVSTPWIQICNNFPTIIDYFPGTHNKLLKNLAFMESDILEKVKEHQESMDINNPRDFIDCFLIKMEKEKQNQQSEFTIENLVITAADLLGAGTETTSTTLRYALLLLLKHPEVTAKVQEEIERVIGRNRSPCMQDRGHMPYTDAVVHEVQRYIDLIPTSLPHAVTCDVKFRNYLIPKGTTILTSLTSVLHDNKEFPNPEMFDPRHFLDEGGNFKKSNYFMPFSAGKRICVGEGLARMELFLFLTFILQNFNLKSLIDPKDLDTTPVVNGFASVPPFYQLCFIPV

Compound | IC50 (CYP2A6; [1]) [µM] | IC50 (CYP2A6; [2]) [µM] | IC50 (CYP2B6; [3]) [µM] | IC50 (CYP2B6; [4]) [µM] | IC50 (CYP2C8; [5]) [µM] | IC50 (CYP2C8; [6]) [µM] | IC50 (CYP2E1; [7]) [µM] | IC50 (CYP2E1; [8]) [µM] | IC50 (UGT1A4) [µM] | IC50 (CYP2C19; IC50 RI, reversible inhibition) [µM] | IC50 (CYP2C19; [9]) [µM] | IC50 at 10 min (CYP3A; [10]) [µM] | IC50 at 10 min (CYP3A; [11]) [µM] | IC50 at 10 min (CYP3A; [12]) [µM] | IC50 at 10 min (CYP3A; [13]) [µM] | IC50 at 10 min (CYP3A; [14]) [µM] | IC50 at 10 min (CYP3A; [15]) [µM] | IC50 at 10 min (CYP3A; [16]) [µM] | further results
COc1cc2c(c(OC)c1OC)-c1c(cc(OC)c(OC)c1OC)C[C@](C)(O)[C@@H](C)C2 [Schisandrin, schisandrin] | > 50 | 40.9 | > 50 | 14.7 | > 50 | 22 | 36 | 4.2 | > 50 | 5.3 | 46.1 | ≤ 16 | 10.5 | 35 | 16 | 43.3 | 5.8 | 20.6 | –
COc1c2c(cc3c1-c1c(cc4c(c1OC)OCO4)C[C@H](C)[C@H](C)C3)OCO2 [Wuweizisu C, wuweizisu C] | > 50 | > 50 | 1.4 | 2.9 | 14.6 | 21 | 25.2 | > 50 | > 50 | 2.7 | 1.5 | – | 25.9 | 2.5 | 5.6 | – | 3.6 | – | –
COc1cc2c(c(OC)c1OC)-c1c(cc3c(c1OC)OCO3)C[C@H](C)[C@](C)(O)[C@H]2OC(=O)c1ccccc1 [Gomisin C, gomisin C] | > 50 | > 50 | > 50 | 33.1 | 5.8 | – | 24.4 | > 50 | > 50 | 16.3 | 20.4 | 0.19 to 0.3 | 0.3 | 0.1 | 0.26 | 0.09 | 0.19 to 0.28 | 0.09 | –
COc1cc2c(c(OC)c1OC)-c1c(cc3c(c1OC)OCO3)C[C@H](C)[C@H](C)C2 [Gomisin N, gomisin N] | > 50 | 38.2 | > 50 | 38.3 | 9.9 | 31.7 | 23.6 | > 50 | > 50 | 10.4 | 3.5 | 1.3 to 4.5 | 4.5 | 1.7 | 1.4 | 0.61 | 1.3 | 0.55 | IC50 shift at 10 min (CYP2C8; human, pooled human liver microsomes, pH 7.4, probe amodiaquine, RI/TDI fold shift): 3.2; IC50 shift at 10 min (CYP2E1; human, pooled human liver microsomes, pH 7.4, probe chlorzoxazone (cocktail set B), RI/TDI fold shift): > 2.1; IC50 shift at 10 min (CYP3A; pH 7.4, probe midazolam (cocktail set B)): 2.7; IC50 shift at 10 min (CYP3A; pH 7.4, probe nifedipine (cocktail set B)): 2.4; IC50 shift at 10 min (CYP3A; pH 7.4, probe testosterone (cocktail set B)): 2.4
